Experiments:
Format in all cases: biochemical
Akt1 = molecular target: T1, Akt1 (Homo sapiens, UniProt P31749); assay: Kinase profiling
T1 construct: purchased Reaction Biology Corp
Experimental: [The procedure below names another target; the source lists this target under the same test.] (§1) Kinase profiling was performed using HotSpot technology (Reaction Biology Corp. 11 Malvern, Pa., USA). This technology is a radioisotope-based P81 filter-binding assay. Compound of the present invention were dissolved in pure DMSO to make a 10 mM stock, then diluted in pure DMSO to make a serial dilution based on the IC50 ranges. PKCε (h) (0.4 nM, human recombinant protein expressed in insect cells. Mw=83.7 kDa) and substrate (20 μM peptide substrate, [RFARKGSLRQKNV]) were diluted in the reaction buffer (20 mM HEPES-HCl, pH 7.5, 10 mM MgCl2, 1 mM EGTA, 0.02% Brij35, 0.1 mM Na3VO4, 0.02 mg/ml BSA, 2 mM DTT, and 1% DMSO), and then 5 nL of compound was delivered into PKCε (h) and substrate mixture by acoustic technology using Echo 550 (LabCyte Inc., Sunnyvale, Calif.). The reaction was initiated by the addition of [γ-33P-ATP] into the reaction mixture (final concentration was 10 μM) and stopped after at least 40 min incubation at room temperature. The unreacted free 33P-ATP was washed away before detection.

PKA = molecular target: T2, PKA (Homo sapiens, UniProt P17612); assay: Kinase profiling
T2 construct: purchased Reaction Biology Corp
Experimental: [The procedure below names another target; the source lists this target under the same test.] as §1

RSK1 = molecular target: T3, RSK1 (Homo sapiens, UniProt Q15418); assay: Kinase profiling
T3 construct: purchased Reaction Biology Corp
T3 sequence (Q15418 whole entry): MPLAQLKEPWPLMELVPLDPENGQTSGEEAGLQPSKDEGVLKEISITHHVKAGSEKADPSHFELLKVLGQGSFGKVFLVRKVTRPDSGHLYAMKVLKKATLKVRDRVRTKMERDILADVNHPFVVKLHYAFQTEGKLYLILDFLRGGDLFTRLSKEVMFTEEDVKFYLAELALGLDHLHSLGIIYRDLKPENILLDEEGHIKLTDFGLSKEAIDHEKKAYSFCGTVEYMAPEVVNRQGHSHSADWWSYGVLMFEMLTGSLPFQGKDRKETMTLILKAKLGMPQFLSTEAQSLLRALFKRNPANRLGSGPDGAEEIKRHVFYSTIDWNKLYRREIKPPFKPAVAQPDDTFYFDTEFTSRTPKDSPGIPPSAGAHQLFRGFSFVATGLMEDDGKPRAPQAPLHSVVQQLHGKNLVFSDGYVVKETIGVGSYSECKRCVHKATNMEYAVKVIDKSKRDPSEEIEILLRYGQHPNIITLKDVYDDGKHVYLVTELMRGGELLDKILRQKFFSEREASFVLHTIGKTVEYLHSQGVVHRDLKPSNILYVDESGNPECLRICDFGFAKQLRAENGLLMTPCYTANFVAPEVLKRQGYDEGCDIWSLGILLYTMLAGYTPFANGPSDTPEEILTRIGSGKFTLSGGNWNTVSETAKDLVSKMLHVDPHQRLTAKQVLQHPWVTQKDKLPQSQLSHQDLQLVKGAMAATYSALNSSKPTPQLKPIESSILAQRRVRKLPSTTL
Experimental: [The procedure below names another target; the source lists this target under the same test.] as §1

cMET = molecular target: T4, cMET (Homo sapiens, UniProt P08581); assay: Kinase profiling
T4 construct: purchased Reaction Biology Corp
Experimental: [The procedure below names another target; the source lists this target under the same test.] as §1

FYN = molecular target: T5, FYN (Homo sapiens, UniProt P06241); assay: Kinase profiling
T5 construct: purchased Reaction Biology Corp
T5 sequence (P06241 whole entry): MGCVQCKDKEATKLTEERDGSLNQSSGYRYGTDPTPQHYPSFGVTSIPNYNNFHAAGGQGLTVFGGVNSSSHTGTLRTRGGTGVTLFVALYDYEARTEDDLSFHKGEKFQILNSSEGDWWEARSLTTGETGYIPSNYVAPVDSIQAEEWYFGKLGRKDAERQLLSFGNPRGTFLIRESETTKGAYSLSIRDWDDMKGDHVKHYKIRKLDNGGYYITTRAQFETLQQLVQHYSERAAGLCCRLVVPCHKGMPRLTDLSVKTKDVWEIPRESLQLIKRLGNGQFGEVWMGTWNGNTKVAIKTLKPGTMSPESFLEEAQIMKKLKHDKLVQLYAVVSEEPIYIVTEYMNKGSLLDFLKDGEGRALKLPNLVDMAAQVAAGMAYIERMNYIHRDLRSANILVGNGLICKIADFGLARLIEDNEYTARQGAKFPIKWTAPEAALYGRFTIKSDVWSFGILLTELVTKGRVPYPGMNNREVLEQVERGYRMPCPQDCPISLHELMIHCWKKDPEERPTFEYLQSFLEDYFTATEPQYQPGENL
Experimental: [The procedure below names another target; the source lists this target under the same test.] as §1

PKCalpha = molecular target: T6, PKCalpha (Homo sapiens, UniProt P17252); assay: Kinase profiling
T6 construct: purchased Reaction Biology Corp
Experimental: [The procedure below names another target; the source lists this target under the same test.] as §1

CDK1/cyclinB = molecular target: T7, CDK1/cyclinB (Homo sapiens, UniProt P06493); assay: Kinase profiling
T7 construct: purchased Reaction Biology Corp
Experimental: [The procedure below names another target; the source lists this target under the same test.] as §1

PKCbeta2 = molecular target: T8, PKCbeta2 (Homo sapiens, UniProt P05771); assay: Kinase profiling
T8 construct: purchased Reaction Biology Corp
T8 sequence (P05771 1-673 isoform P05771-2): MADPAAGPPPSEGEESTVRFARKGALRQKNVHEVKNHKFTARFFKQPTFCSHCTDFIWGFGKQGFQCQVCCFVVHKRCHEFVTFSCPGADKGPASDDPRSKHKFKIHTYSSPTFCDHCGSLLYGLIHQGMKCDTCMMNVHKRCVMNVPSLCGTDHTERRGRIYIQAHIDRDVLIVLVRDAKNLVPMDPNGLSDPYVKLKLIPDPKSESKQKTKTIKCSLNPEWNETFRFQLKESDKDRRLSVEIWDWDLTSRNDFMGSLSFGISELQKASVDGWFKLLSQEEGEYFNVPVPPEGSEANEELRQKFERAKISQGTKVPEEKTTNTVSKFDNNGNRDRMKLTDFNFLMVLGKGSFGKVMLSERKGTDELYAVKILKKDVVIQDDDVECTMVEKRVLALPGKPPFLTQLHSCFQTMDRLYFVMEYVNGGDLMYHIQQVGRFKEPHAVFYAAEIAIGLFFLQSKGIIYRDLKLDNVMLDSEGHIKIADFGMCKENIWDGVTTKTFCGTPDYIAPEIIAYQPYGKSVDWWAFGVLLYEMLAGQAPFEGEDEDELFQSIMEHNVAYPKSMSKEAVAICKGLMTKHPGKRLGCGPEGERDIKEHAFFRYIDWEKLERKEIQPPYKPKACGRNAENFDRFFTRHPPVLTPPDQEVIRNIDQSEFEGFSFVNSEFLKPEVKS
Experimental: [The procedure below names another target; the source lists this target under the same test.] as §1

PKCzeta = molecular target: T9, PKCzeta (Homo sapiens, UniProt Q05513); assay: Kinase profiling
T9 construct: purchased Reaction Biology Corp
T9 sequence (Q05513 whole entry): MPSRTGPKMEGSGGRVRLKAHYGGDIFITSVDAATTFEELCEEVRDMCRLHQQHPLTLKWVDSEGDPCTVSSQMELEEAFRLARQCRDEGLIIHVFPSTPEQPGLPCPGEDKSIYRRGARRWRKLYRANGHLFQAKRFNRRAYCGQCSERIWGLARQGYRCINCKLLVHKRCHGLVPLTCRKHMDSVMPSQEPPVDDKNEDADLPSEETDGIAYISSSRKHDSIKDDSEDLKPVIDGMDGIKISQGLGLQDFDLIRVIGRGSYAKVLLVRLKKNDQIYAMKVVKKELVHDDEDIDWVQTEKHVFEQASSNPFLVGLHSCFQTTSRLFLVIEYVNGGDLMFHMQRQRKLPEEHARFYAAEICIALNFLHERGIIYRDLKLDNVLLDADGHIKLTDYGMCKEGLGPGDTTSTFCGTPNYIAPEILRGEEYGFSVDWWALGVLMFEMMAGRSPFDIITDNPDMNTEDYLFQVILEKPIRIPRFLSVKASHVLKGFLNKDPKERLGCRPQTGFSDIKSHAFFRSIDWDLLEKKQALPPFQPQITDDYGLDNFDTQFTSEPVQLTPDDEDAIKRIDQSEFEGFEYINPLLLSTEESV
Experimental: [The procedure below names another target; the source lists this target under the same test.] as §1

PKCε = molecular target: T10, PKCε (Homo sapiens, UniProt Q02156); assay: Kinetic analysis of PKCε inhibition (initial velocity vs ATP, Lineweaver-Burk)
T10 construct: host or cells: insect cells
T10 sequence (Q02156 whole entry): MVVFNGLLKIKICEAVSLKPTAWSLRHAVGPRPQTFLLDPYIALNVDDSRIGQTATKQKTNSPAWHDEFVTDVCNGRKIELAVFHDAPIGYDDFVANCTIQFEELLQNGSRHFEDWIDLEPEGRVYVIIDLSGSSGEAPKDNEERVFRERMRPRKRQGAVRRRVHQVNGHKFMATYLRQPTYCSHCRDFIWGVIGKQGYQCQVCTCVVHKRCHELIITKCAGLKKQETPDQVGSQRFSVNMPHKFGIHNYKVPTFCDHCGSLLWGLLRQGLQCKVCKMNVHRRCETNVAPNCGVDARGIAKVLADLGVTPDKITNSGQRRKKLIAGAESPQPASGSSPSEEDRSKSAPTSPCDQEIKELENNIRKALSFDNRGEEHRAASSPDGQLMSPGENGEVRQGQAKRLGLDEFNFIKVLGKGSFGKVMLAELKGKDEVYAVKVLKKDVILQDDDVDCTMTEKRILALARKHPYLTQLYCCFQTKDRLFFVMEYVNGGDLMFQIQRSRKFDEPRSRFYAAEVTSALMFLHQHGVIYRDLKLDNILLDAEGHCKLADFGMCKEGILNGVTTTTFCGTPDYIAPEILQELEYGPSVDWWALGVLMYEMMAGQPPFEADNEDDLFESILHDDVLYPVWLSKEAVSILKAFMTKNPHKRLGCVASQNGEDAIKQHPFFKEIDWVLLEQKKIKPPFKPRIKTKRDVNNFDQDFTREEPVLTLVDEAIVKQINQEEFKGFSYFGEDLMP
Experimental: FIG. 1. […] (A) Initial velocity (Vi) plotted against ATP concentration at various concentrations of the compound plus vehicle control.
The above in vitro assay can also be used to measure the initial velocity of the kinase reaction, varying the concentrations of ATP (1-60 μM) or S25 peptide substrate (1-500 nM). Values for km and Vmax are calculated for drug- and vehicle-treated samples by linear regression analysis of double reciprocal Lineweaver Burke plots (see Examples).

T1 sequence (P31749 whole entry): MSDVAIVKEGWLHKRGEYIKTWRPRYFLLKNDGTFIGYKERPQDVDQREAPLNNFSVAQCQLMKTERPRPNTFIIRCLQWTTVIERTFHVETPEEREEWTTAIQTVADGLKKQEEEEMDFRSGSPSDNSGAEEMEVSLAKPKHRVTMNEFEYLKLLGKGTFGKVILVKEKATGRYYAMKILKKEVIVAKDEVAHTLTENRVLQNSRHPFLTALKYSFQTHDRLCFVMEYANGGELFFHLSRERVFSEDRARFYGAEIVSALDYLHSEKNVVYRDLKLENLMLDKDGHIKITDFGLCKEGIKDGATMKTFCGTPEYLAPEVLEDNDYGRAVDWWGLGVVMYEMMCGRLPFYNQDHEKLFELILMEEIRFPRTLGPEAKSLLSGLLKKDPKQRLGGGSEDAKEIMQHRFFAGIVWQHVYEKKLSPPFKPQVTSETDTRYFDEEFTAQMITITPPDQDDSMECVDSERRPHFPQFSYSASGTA

IC50 (Akt1): > 20 µM | IC50 (PKA): > 20 µM | IC50 (RSK1): > 20 µM | IC50 (cMET): > 20 µM | IC50 (FYN): > 20 µM | IC50 (PKCalpha): > 20 µM | IC50 (CDK1/cyclinB): > 20 µM | IC50 (PKCbeta2): > 20 µM | IC50 (PKCzeta): > 20 µM | mode of PKCε inhibition with respect to ATP (PKCε; FIG. 1, kinetic analysis): non-competitively with ATP | Vmax and km in Lineweaver-Burk double reciprocal plot (PKCε; FIG. 1B, various compound concentrations plus vehicle control (4 conditions)): differences in Vmax but not in km
Structure (SMILES): O=C(NCCCN1CCCC1)c1ccc(/C=C2\Sc3ccccc3N(Cc3ccccc3F)C2=O)cc1 [Compound 481, 4-{(Z/E)-[4-(2-fluorobenzyl)-3-oxo-3,4-dihydro-2H-1,4-benzothiazin-2-ylidene]methyl}-N-[3-(pyrrolidin-1-yl)propyl]benzamide]

Reference: patent US8729081B2, “Compositions and methods for treating alcohol use disorders, pain and other diseases” (VM Discovery Inc., priority 2008, dated 2014)
